Results on two compounds are retold here after US7569547B2, “Inhibiting furin with polybasic peptides” (Board of Supervisors of Louisiana State University and …, priority 2001, dated 2009).

Each structure is given as a SMILES string.

In test [1] the test system is Pseudomonas exotoxin A (PEA) in HEK293 cells. The test is described as follows: Protection of HEK293 cells from death caused by Pseudomonas exotoxin A (WST). It counts as cell-based, human. The source says:
Pseudomonas exotoxin A (PEA) must be cleaved by furin at the cell surface to gain entry into a cell, which typically causes cell death. […] We inferred that the D6R blocked the cleavage of PEA by furin, thus preventing its activation.

In the next test the target is T1, PC2 (Mus musculus, UniProt P21661).
T1 sequence (P21661 109-637): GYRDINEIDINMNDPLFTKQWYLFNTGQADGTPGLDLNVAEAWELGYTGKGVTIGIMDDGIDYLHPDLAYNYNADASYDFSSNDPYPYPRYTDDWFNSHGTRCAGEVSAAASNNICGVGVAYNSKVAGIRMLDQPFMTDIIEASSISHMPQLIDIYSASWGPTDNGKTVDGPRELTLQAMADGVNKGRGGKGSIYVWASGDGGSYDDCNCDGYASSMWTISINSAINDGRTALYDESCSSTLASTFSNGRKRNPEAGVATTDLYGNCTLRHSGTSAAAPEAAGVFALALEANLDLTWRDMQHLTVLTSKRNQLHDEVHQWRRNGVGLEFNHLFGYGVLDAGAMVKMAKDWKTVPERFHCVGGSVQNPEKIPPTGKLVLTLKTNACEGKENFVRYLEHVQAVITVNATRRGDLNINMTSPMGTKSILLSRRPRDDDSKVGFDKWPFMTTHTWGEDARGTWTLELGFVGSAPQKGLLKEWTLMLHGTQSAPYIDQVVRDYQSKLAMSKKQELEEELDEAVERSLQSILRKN

Take `N=C(N)NCCC[C@@H](NC(=O)[C@H](N)CCCN=C(N)N)C(=O)N[C@H](CCCNC(=N)N)C(=O)N[C@H](CCCNC(=N)N)C(=O)N[C@H](CCCNC(=N)N)C(=O)N[C@H](CCCN=C(N)N)C(=O)O` [Hexa-D-arginine]: the “amount of WST (absorbance)” value in test [1] (HEK293, 1 μM D6R + 10 ng/mL PEA, 51 hours) came out at 0.52 ± 0.04; in test [1] (HEK293, 1 μM D6R + 10 ng/mL PEA, 76 hours), 0.85 ± 0.02; in test [1] (HEK293, 1 μM D6R + 10 ng/mL PEA, 86 hours), 0.83 ± 0.02; in test [1] (HEK293, 1 μM D6R + 10 ng/mL PEA, 96 hours), 0.56 ± 0.04; in test [1] (HEK293, 10 μM D6R + 10 ng/mL PEA, 51 hours), 0.54 ± 0.07; in test [1] (HEK293, 10 μM D6R + 10 ng/mL PEA, 76 hours) it was 0.73 ± 0.05. Moreover, the “amount of WST (absorbance)” value in test [1] (HEK293, 10 μM D6R + 10 ng/mL PEA, 86 hours) is 0.71 ± 0.02; in test [1] (HEK293, 10 μM D6R + 10 ng/mL PEA, 96 hours) it was 0.67 ± 0.01; in test [1] (HEK293, 100 μM D6R + 10 ng/mL PEA, 51 hours), 0.51 ± 0.04; in test [1] (HEK293, 100 μM D6R + 10 ng/mL PEA, 76 hours) it was 0.78 ± 0.03; in test [1] (HEK293, 100 μM D6R + 10 ng/mL PEA, 86 hours), 0.61 ± 0.06; in test [1] (HEK293, 100 μM D6R + 10 ng/mL PEA, 96 hours), 0.55 ± 0.02. The “effect on cell death caused by PEA” value in test [1] (HEK293 cells, 10 ng/mL PEA, 1 μM final concentration) was “reduced the cell death caused by PEA”. Further, the “protection of cells from killing by exotoxin” value in test [1] (preliminary data, summary statement) was “able to protect cells from killing”.

Regarding `N=C(N)NCCC[C@H](NC(=O)[C@H](CCCNC(=N)N)NC(=O)[C@H](CCCNC(=N)N)NC(=O)[C@H](CCCNC(=N)N)NC(=O)[C@H](CCCNC(=N)N)NC(=O)[C@H](CCCNC(=N)N)NC(=O)[C@H](CCCNC(=N)N)NC(=O)[C@H](CCCNC(=N)N)NC(=O)[C@@H](N)CCCNC(=N)N)C(=O)O` [Nona-L-arginine], at PC2, the “cleavage by PC2” value is listed as “essentially no cleavage”.
